Laboratory results reported in paper PMC13500670, “The U1 snRNP protein U1C and Helix H of U1 snRNA are critical for small molecule splicing modulator function” (Nature Communications, 2026).

What was measured:
[1] = target: T1, native U1 snRNP + SMN2 5' ss oligo (Homo sapiens, UniProt P09234); experiment: FP: native U1 snRNP binding to SMN2 5' ss oligo with DMSO or compound; settings: Fig. 1B; 10 μM branaplam
T1 construct: we added a large excess of full-length U1C (800 nM) expressed in and purified from E. coli; endogenous in cells; host or cells: HeLa-S3 with CRISPR knock-in of a C-terminal HTP tag on U1A; the added U1C came from E. coli
Protocol: (§1) We engineered a protein A-tag on U1A in HeLa cells using CRISPR-Cas9 and purified native U1 snRNP using the protein A tag and IgG resin (Supplementary Fig. 1A). […] Since U1C is weakly associated with U1 snRNP and may fall off at low U1 snRNP concentrations, we added a large excess of full-length U1C (800 nM) expressed in and purified from E. coli in all binding reactions unless otherwise stated.
(§2) U1A-HTP cells were adapted to grow in suspension in Joklik’s MEM (Sigma) supplemented with 5% (v/v) newborn calf serum and 1× Pluronic™ F-68 (Gibco). […]
(§3) All of 5′-FAM labeled RNA oligos used in this study were synthesized and purified by IDT (USA). Fluorescence polarization (FP) assays were performed in binding buffer (20 mM HEPES pH 7.5, 1 mM MgCl2, 200 mM KCl, 0.01% TritonX-100, 0.1%PEG3350, 2%DMSO) at room temperature using a Envision HTS Plate Reader system (Revvity). […] The equilibrium dissociation constants (Kd) of binding reaction were calculated using the following single-site binding model formula in GraphPad Prism: y=START+(END−START)x/kD+x where x and y represent the concentration of U1 snRNP (or U1 snRNA) and the polarization value measured respectively, START represents the polarization value of protein-free nucleic acid probe, END represents the maximum polarization value when U1 snRNP (or U1 snRNA) binds to the fluorescently labeled 5′ ss oligo. […]

[2] = target: T2, native U1 snRNP + HTT 5' ss oligo (Homo sapiens, UniProt P09234); experiment: FP: native U1 snRNP binding to HTT 5' ss oligo; settings: Fig. 1C; 10 μM branaplam
T2 construct: we added a large excess of full-length U1C (800 nM) expressed in and purified from E. coli; endogenous in cells; host or cells: HeLa-S3 with CRISPR knock-in of a C-terminal HTP tag on U1A; the added U1C came from E. coli
Protocol: as §1, §2, §3

[3] = tested on: 5' end of U1 snRNA + HTT 5' ss oligo with -1A deleted; experiment: FP: 5' end of U1 snRNA + HTT 5' ss oligo with -1A deleted (Supplementary Fig. 5D); format: binding, human
Protocol: (§4) To ensure the presence of a −1A bulge in the RNA duplex, we extended the U1 snRNA to nucleotide 1–16 and generated an artificial HTT 5′ ss oligo that added 4 additional nucleotides upstream of the −4C nucleotide to ensure stable base pairing upstream of the potential −1A bulge.
as §3

[4] = tested on: full length U1 snRNA + HTT 5' ss oligo with -1A deleted; experiment: FP: full-length U1 snRNA + HTT 5' ss oligo with -1A deleted (Supplementary Fig. 5E); format: binding, human
Protocol: as §4, §3

[5] = tested on: U1 snRNA nucleotide 1-16 + artificial HTT 5' ss oligo; experiment: FP: U1 snRNA nucleotide 1-16 + artificial HTT 5' ss oligo with -1A bulge (Supplementary Fig. 5F); format: binding, human
Protocol: as §4, §3

[6] = tested on: SMN2 pre-mRNA + native or reconstituted U1 snRNP; experiment: Pull-down of native or reconstituted U1 snRNP by immobilized SMN2 pre-mRNA; format: binding, human; settings: Fig. 1F; 50 μM Branaplam vs 0.5% DMSO
Source text: In this assay, we immobilized Minx (as a positive control with a canonical 5′ ss) or SMN2 pre-mRNA containing the weak 5′ ss of exon 7 on amylose resin, pulled down either native or reconstituted U1 snRNP, and analyzed the RNAs in the pulldown samples as a surrogate of the amount of U1 snRNP bound to the pre-mRNA.
The SMN2 pre-mRNA fragment used in pull down experiment contains 100 nt up and downstream of the 5′ ss of SMN2 intron 7 followed by three copies of MS2 tag. It was cloned downstream of a T7 promoter in the Sp72 vector. The SMN2 pre-mRNA was in vitro transcribed and purified by 7 M Urea denaturing gel.
The complex was then incubated with amylose resin and washed with the same buffer. The resins were treated in 5 μl buffer containing 1 mg/ml proteinase K at 37 °C for 30 min to release the RNAs. The resulting samples were run on 6% denaturing polyacrylamide gel and stained with Sybr Gold to visualize the RNAs.

In the case of `CC1(C)CC(Oc2ccc(-c3ccc(-c4cn[nH]c4)cc3O)nn2)CC(C)(C)N1` [Branaplam, branaplam], the “increase of binding affinity by compound versus DMSO” value [1] is reported as “about twofold”, the “increase of binding affinity by compound versus DMSO” value [2] is reported as “about twofold” and the “effect of compound on binding” value [3] is reported as “not improved”. For the same compound, the “effect of compound on binding” value [4] was “not improved”, the “effect of compound on binding affinity” value [5] was “no effect” and the “amount of native or reconstituted U1 snRNP pulled down by SMN2 pre-mRNA” value [6] was “significantly increased”.
